Patent US20230233576A1, “ECLITASERTIB FOR USE IN TREATING CONDITIONS INVOLVING SYSTEMIC HYPERINFLAMMATORY RESPONSE” (priority 2020, published 2023)

System: adult participants hospitalized for severe COVID-19
Assay: Phase 1b severe COVID-19 study: adverse events and deaths
Assay type: in vivo, human
Excerpt: Safety evaluation was based on adverse events (Aes) including serious adverse events (SAEs) and adverse events of special interest (AESIs) (i.e., pregnancy, symptomatic overdose with IMP. Alanine aminotransferase [ALT] increase, and anemia), and treatment-emergent adverse events (TEAEs) leading to treatment discontinuation.
The primary focus of AE reporting was on treatment emergent adverse events (TEAEs). Treatment emergent adverse events were Aes that were not present at baseline or represented the exacerbation of a pre-existing condition during the on-treatment period (treatment-emergent period), defined as the time from the first administration of the IMP up to and including the day of last dose of study drug plus 5 days.
All adverse events were coded to a “preferred term (PT)”, “high-level term (HLT)”, “high-level group term (HLGT)”, and associated primary SOC using Medical Dictionary for Regulatory Activities (MedDRA) version 23.1.
The number and cumulative incidence rate of deaths [%] during the on-study period were computed by treatment group: number of deaths divided by the number of participants. Kaplan-Meier plot for time to death was presented by treatment group.

[1] = 600 mg (N = 47), Safety population

CN1C(=O)[C@@H](NC(=O)c2nnc(Cc3ccccc3)[nH]2)COc2cccnc21 [RIPK1 Inhibitor, (S)-5-benzyl-N-(5-methyl-4-oxo-2,3,4,5-tetrahydropyrido[3,2-b][1,4]oxazepin-3-yl)-4H-1,2,4-triazole-3-carboxamide]
intensity of the majority of the TEAEs (600 mg): grade 2 | participants with PCSAs in hemoglobin and hematocrits considered as TEAEs of anemia (600 mg): 1 participants | Participants with TEAE(s) (SAE): Any class [1]: 6 (12.8) n (%) | Participants with TEAE(s) (SAE): PT Bacterial infection [1]: 1 (2.1) n (%) | Participants with TEAE(s) (SAE): PT Cardiac arrest [1]: 0 n (%) | Participants with TEAE(s) (SAE): PT Condition aggravated [1]: 2 (4.3) n (%) | Participants with TEAE(s) (SAE): PT Peripheral artery thrombosis [1]: 1 (2.1) n (%) | Participants with TEAE(s) (SAE): PT Pneumonia bacterial [1]: 1 (2.1) n (%) | Participants with TEAE(s) (SAE): PT Pseudomonas infection [1]: 1 (2.1) n (%) | Participants with TEAE(s) (SAE): PT Pulmonary embolism [1]: 1 (2.1) n (%) | Participants with TEAE(s) (SAE): PT Respiratory failure [1]: 0 n (%) | Participants with TEAE(s) (SAE): SOC CARDIAC DISORDERS [1]: 0 n (%) | Participants with TEAE(s) (SAE): SOC GENERAL DISORDERS AND ADMINISTRATION SITE CONDITIONS [1]: 2 (4.3) n (%) | Participants with TEAE(s) (SAE): SOC INFECTIONS AND INFESTATIONS [1]: 3 (6.4) n (%) | Participants with TEAE(s) (SAE): SOC RESPIRATORY, THORACIC AND M[…] [1]: 1 (2.1) n (%) | Participants with TEAE(s) (SAE): SOC VASCULAR DISORDERS [1]: 1 (2.1) n (%) | TEAE, Any class: number of participants [1]: 24 | TEAE, Any class: percentage of participants [1]: (51.1) % | TEAE, PT Alanine aminotransferase increased: number of participants [1]: 6 | TEAE, PT Alanine aminotransferase increased: percentage of participants [1]: (12.8) % | TEAE, PT Anaemia: number of participants [1]: 1 | TEAE, PT Anaemia: percentage of participants [1]: (2.1) % | TEAE, PT Anxiety disorder: number of participants [1]: 1 | TEAE, PT Anxiety disorder: percentage of participants [1]: (2.1) % | TEAE, PT Arterial injury: number of participants [1]: 1 | TEAE, PT Arterial injury: percentage of participants [1]: (2.1) % | TEAE, PT Aspartate aminotransferase increased: number of participants [1]: 1 | TEAE, PT Aspartate aminotransferase increased: percentage of participants [1]: (2.1) % | TEAE, PT Back pain: number of participants [1]: 1 | TEAE, PT Back pain: percentage of participants [1]: (2.1) % | TEAE, PT Bacterial infection: number of participants [1]: 1 | TEAE, PT Bacterial infection: percentage of participants [1]: (2.1) % | TEAE, PT Blood pressure increased: number of participants [1]: 0 | TEAE, PT Cardiac arrest: number of participants [1]: 0 | TEAE, PT Cerebral ischaemia: number of participants [1]: 0 | TEAE, PT Chest discomfort: number of participants [1]: 1 | TEAE, PT Chest discomfort: percentage of participants [1]: (2.1) % | TEAE, PT Cholelithiasis: number of participants [1]: 0 | TEAE, PT Constipation: number of participants [1]: 1 | TEAE, PT Constipation: percentage of participants [1]: (2.1) % | TEAE, PT Dehydration: number of participants [1]: 1 | TEAE, PT Dehydration: percentage of participants [1]: (2.1) % | TEAE, PT Diarrhoea: number of participants [1]: 4 | TEAE, PT Diarrhoea: percentage of participants [1]: (8.5) % | TEAE, PT Drug hypersensitivity: number of participants [1]: 1 | TEAE, PT Drug hypersensitivity: percentage of participants [1]: (2.1) % | TEAE, PT Dyspepsia: number of participants [1]: 0 | TEAE, PT Dyspnoea: number of participants [1]: 1 | TEAE, PT Dyspnoea: percentage of participants [1]: (2.1) % | TEAE, PT Emphysema: number of participants [1]: 1 | TEAE, PT Emphysema: percentage of participants [1]: (2.1) % | TEAE, PT Encephalopathy: number of participants [1]: 0 | TEAE, PT Fatigue: number of participants [1]: 1 | TEAE, PT Fatigue: percentage of participants [1]: (2.1) % | TEAE, PT Flatulence: number of participants [1]: 1 | TEAE, PT Flatulence: percentage of participants [1]: (2.1) % | TEAE, PT Furuncle: number of participants [1]: 0 | TEAE, PT Gastritis: number of participants [1]: 0 | TEAE, PT Gastrooesophageal sphincter insufficiency: number of participants [1]: 0 | TEAE, PT Hyperglycaemia: number of participants [1]: 1 | TEAE, PT Hyperglycaemia: percentage of participants [1]: (2.1) % | TEAE, PT Hypertension: number of participants [1]: 1 | TEAE, PT Hypertension: percentage of participants [1]: (2.1) % | TEAE, PT Hypoglycaemia: number of participants [1]: 1 | TEAE, PT Hypoglycaemia: percentage of participants [1]: (2.1) % | TEAE, PT Hypophosphataemia: number of participants [1]: 1 | TEAE, PT Hypophosphataemia: percentage of participants [1]: (2.1) % | TEAE, PT Metabolic acidosis: number of participants [1]: 0 | TEAE, PT Nausea: number of participants [1]: 1 | TEAE, PT Nausea: percentage of participants [1]: (2.1) % | TEAE, PT Non-cardiac chest pain: number of participants [1]: 1 | TEAE, PT Non-cardiac chest pain: percentage of participants [1]: (2.1) % | TEAE, PT Noninfective bronchitis: number of participants [1]: 0 | TEAE, PT Oesophageal ulcer: number of participants [1]: 0 | TEAE, PT Oesophagitis: number of participants [1]: 0 | TEAE, PT Oropharyngeal pain: number of participants [1]: 1 | TEAE, PT Oropharyngeal pain: percentage of participants [1]: (2.1) % | TEAE, PT Ovarian cyst: number of participants [1]: 0 | TEAE, PT Peripheral artery thrombosis: number of participants [1]: 1 | TEAE, PT Peripheral artery thrombosis: percentage of participants [1]: (2.1) % | TEAE, PT Pleural effusion: number of participants [1]: 0 | TEAE, PT Pneumomediastinum: number of participants [1]: 0 | TEAE, PT Pneumonia bacterial: number of participants [1]: 1 | TEAE, PT Pneumonia bacterial: percentage of participants [1]: (2.1) % | TEAE, PT Pneumonia: number of participants [1]: 0 | TEAE, PT Pneumoperitoneum: number of participants [1]: 0 | TEAE, PT Pneumothorax: number of participants [1]: 0 | TEAE, PT Procedural pneumothorax: number of participants [1]: 0 | TEAE, PT Pseudomembranous colitis: number of participants [1]: 1 | TEAE, PT Pseudomembranous colitis: percentage of participants [1]: (2.1) % | TEAE, PT Pseudomonas infection: number of participants [1]: 1 | TEAE, PT Pseudomonas infection: percentage of participants [1]: (2.1) % | TEAE, PT Psychomotor hyperactivity: number of participants [1]: 0 | TEAE, PT Pulmonary embolism: number of participants [1]: 1
